Data on 17 compounds can be found in PubChem BioAssay AID298 (DTP/NCI, 2004).

Several values for one entry are separate records, joined by “and”; a condition that tells them apart may be missing. Identical values can stand only once. Inconclusive results are not listed.

This test deals with MX-1 breast xenograft, intrarenal, nude mice, tumor weight. In words: NCI In Vivo Anticancer Drug Screen. Data for tumor model Human Mammary Carcinoma MX-1 Xenograft (intrarenal inoculation) in NU/NU BALB/C (nude) mice. The following applies: endpoint: mean tumor weight change, higher = larger tumour. The procedure, abridged:
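Efficacy in vivo: tumor measurement or survival of treated animals divided by that of vehicle-dosed controls.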

The mark [1] stands for this setting: dose: 100.0 mg/kg/injection, schedule: Q04DX003 (sc), vehicle: saline with Tween-80.
[2] abbreviates: dose: 200.0 mg/kg/injection, schedule: Q04DX003 (sc), vehicle: saline with Tween-80.
[3] abbreviates: dose: 300.0 mg/kg/injection, schedule: Q04DX003 (ip), vehicle: saline with Tween-80.
[4] abbreviates: dose: 25.0 mg/kg/injection, schedule: Q04DX003 (ip), vehicle: saline.
Setting [5] is: dose: 50.0 mg/kg/injection, schedule: Q04DX003 (ip), vehicle: saline.
Where [6] appears, read: dose: 100.0 mg/kg/injection, schedule: Q04DX003 (ip), vehicle: saline.
The mark [7] stands for this setting: dose: 25.0 mg/kg/injection, schedule: Q04DX003 (sc), vehicle: Klucel (hydroxypropylcellulose) (HPC).
[8] abbreviates: dose: 50.0 mg/kg/injection, schedule: Q04DX003 (sc), vehicle: Klucel (hydroxypropylcellulose) (HPC).
Setting [9] is: dose: 150.0 mg/kg/injection, schedule: Q04DX003 (ip), vehicle: DMSO.
The mark [10] stands for this setting: dose: 300.0 mg/kg/injection, schedule: Q04DX003 (ip), vehicle: DMSO.
The mark [11] stands for this setting: dose: 600.0 mg/kg/injection, schedule: Q04DX003 (ip), vehicle: DMSO.

In the case of `CO[C@H]1Nc2c(ccc(C)c2O)C(=O)N2C=C(/C=C/C(N)=O)C[C@@H]12`, the T/C was 41 % of control (dose: 0.25 mg/kg/injection, schedule: Q04DX003 (sc), vehicle: saline + alcohol); 12 % of control (dose: 0.5 mg/kg/injection, schedule: Q04DX003 (sc), vehicle: saline + alcohol); -58 % of control (dose: 1.0 mg/kg/injection, schedule: Q04DX003 (sc), vehicle: saline + alcohol); -98 % of control (dose: 2.0 mg/kg/injection, schedule: Q04DX003 (sc), vehicle: saline + alcohol).

Turning to `NC(=S)N/N=C/c1ccc(O)cn1`, the T/C runs as follows: under setting [1], 88 % of control; under setting [2], 101 % of control; (dose: 400.0 mg/kg/injection, schedule: Q04DX003 (sc), vehicle: saline with Tween-80) 92 % of control.

Turning to `Clc1ccccc1C(Nc1cnccn1)Nc1cnccn1`, the T/C under setting [3] is 70 % of control and 89 % of control.

For `COc1cc([C@@H]2c3cc4c(cc3[C@@H](OC3OC5CO[C@@H](c6cccs6)OC5C(O)C3O)[C@H]3COC(=O)[C@H]23)OCO4)cc(OC)c1O` (some centres not stated), the T/C by setting is: (dose: 8.75 mg/kg/injection, schedule: Q01DX010 (ip), vehicle: saline) 82 % of control; (dose: 17.5 mg/kg/injection, schedule: Q01DX010 (ip), vehicle: saline) 74 % of control.

With `CCCCNP1(NCCCC)=NP(NCCCC)(NCCCC)=NP(NCCCC)(NCCCC)=NP(NCCCC)(NCCCC)=N1`, the T/C (dose: 150.0 mg/kg/injection, schedule: Q04DX003 (ip), vehicle: saline with Tween-80) was 89 % of control and the T/C under setting [3] is 73 % of control.

Take `O=C(O)CC1C(=O)OC2C3COC(=O)c4cc(O)c(O)c(O)c4-c4c(cc(O)c(O)c4O)C(=O)OC2C(OC(=O)c2cc(O)c(O)c4c2C1C(O)C(=O)O4)C(OC(=O)c1cc(O)c(O)c(O)c1)O3` (configuration not stated): the T/C is, setting by setting: under setting [4], 120 % of control; under setting [5], 99 % of control; under setting [6], 73 % of control.

As for `CO[C@@]12[C@@H]3N[C@@H]3CN1C1=C(C(=O)C(NCC3CCCO3)=C(C)C1=O)[C@@H]2COC(N)=O` (some centres not stated), the T/C (dose: 6.25 mg/kg/injection, schedule: Q04DX003 (ip), vehicle: Klucel (hydroxypropylcellulose) (HPC)) is 43 % of control; the T/C (dose: 12.5 mg/kg/injection, schedule: Q04DX003 (ip), vehicle: Klucel (hydroxypropylcellulose) (HPC)) was 56 % of control and 57 % of control; the T/C (dose: 12.5 mg/kg/injection, schedule: Q04DX003 (ip), vehicle: distilled water + Tween-80) was 1 % of control and 3 % of control; the T/C (dose: 25.0 mg/kg/injection, schedule: Q04DX003 (ip), vehicle: Klucel (hydroxypropylcellulose) (HPC)) is 35 % of control and 59 % of control; the T/C (dose: 50.0 mg/kg/injection, schedule: Q04DX003 (ip), vehicle: Klucel (hydroxypropylcellulose) (HPC)) was 28 % of control and 32 % of control; the T/C (dose: 50.0 mg/kg/injection, schedule: Q04DX003 (ip), vehicle: distilled water + Tween-80) is -4 % of control. Also, the T/C (dose: 100.0 mg/kg/injection, schedule: Q04DX003 (ip), vehicle: Klucel (hydroxypropylcellulose) (HPC)) is 14 % of control.

`COc1cc2c[n+](C)c3c4cc5c(cc4ccc3c2cc1OC)OCO5`: the T/C was 94 % of control (dose: 25.0 mg/kg/injection, schedule: Q04DX003 (sc), vehicle: saline with Tween-80); 116 % of control (dose: 50.0 mg/kg/injection, schedule: Q04DX003 (sc), vehicle: saline with Tween-80); 111 % of control under setting [1]; 108 % of control under setting [2].

Regarding `O=C1C=CN(C2OC(CO)C(O)C2O)C(=O)C1` (configuration not stated), the T/C reads like this: (dose: 90.0 mg/kg/injection, schedule: Q01DX009 (ip), vehicle: saline) 65 % of control; (dose: 133.4 mg/kg/injection, schedule: Q01DX009 (ip), vehicle: saline) 98 % of control; (dose: 200.0 mg/kg/injection, schedule: Q01DX009 (ip), vehicle: saline) 89 % of control; (dose: 300.0 mg/kg/injection, schedule: Q01DX009 (ip), vehicle: saline) 36 % of control.

Regarding `O=S(CCCl)CCCl`, the T/C runs as follows: under setting [7], 94 % of control; under setting [8], 92 % of control.

Take `C/C(=N\NC(=O)c1ccccc1O)c1cccc(/C(C)=N/NC(=O)c2ccccc2O)n1`: the T/C under setting [4] was 109 % of control, the T/C under setting [5] was 77 % of control and the T/C under setting [6] was 100 % of control.

Turning to `CN(Cc1cnc2nc(N)nc(N)c2n1)c1ccc(C(=O)N[C@@H](CCC(=O)O)C(=O)O)cc1`, the T/C (dose: 3.0 mg/kg/injection, schedule: Q04DX003 (sc), vehicle: sodium bicarbonate) was 152 % of control; the T/C (dose: 6.0 mg/kg/injection, schedule: Q04DX003 (sc), vehicle: sodium bicarbonate) was 162 % of control; the T/C (dose: 12.0 mg/kg/injection, schedule: Q04DX003 (sc), vehicle: sodium bicarbonate) was 112 % of control; the T/C (dose: 18.0 mg/kg/injection, schedule: Q04DX003 (ip), vehicle: sodium bicarbonate) is 55 % of control; the T/C (dose: 24.0 mg/kg/injection, schedule: Q04DX003 (sc), vehicle: sodium bicarbonate) was 80 % of control.

Take `CCn1cnc2c(=S)nc[nH]c21`: the T/C runs as follows: (dose: 150.0 mg/kg/injection, schedule: Q04DX003 (sc), vehicle: saline) 91 % of control; (dose: 300.0 mg/kg/injection, schedule: Q04DX003 (sc), vehicle: saline) 49 % of control.

Consider `O=C(NO)c1ccccc1`, for which the T/C is 89 % of control (dose: 100.0 mg/kg/injection, schedule: Q01DX010 (sc), vehicle: Klucel (hydroxypropylcellulose) (HPC)); 61 % of control (dose: 200.0 mg/kg/injection, schedule: Q01DX010 (sc), vehicle: Klucel (hydroxypropylcellulose) (HPC)); 21 % of control (dose: 400.0 mg/kg/injection, schedule: Q01DX010 (sc), vehicle: Klucel (hydroxypropylcellulose) (HPC)).

Consider `COc1ccc(N=C(C)C2C(=O)c3ccccc3C2=O)cc1`, for which the T/C reads like this: under setting [9], 93 % of control; under setting [10], 98 % of control; under setting [11], 110 % of control; (dose: 1200.0 mg/kg/injection, schedule: Q04DX003 (ip), vehicle: DMSO) 105 % of control.

On to `COc1ccc(-c2cc(C(=O)Nc3cc(C(F)(F)F)cc(C(F)(F)F)c3)c3ccccc3n2)cc1`, for which the T/C is, setting by setting: under setting [9], 103 % of control; under setting [10], 70 % of control; under setting [11], 78 % of control.

`O=NN(CCCl)C(=O)NC1CCCCC1`: the T/C runs as follows: (dose: 4.0 mg/kg/injection, schedule: Q01DX010 (ip), vehicle: saline with Tween-80) 303 % of control; (dose: 8.0 mg/kg/injection, schedule: Q01DX010 (ip), vehicle: saline with Tween-80) 248 % of control; (dose: 8.0 mg/kg/injection, schedule: Q01DX010 (sc), vehicle: saline with Tween-80) 71 % of control; (dose: 12.5 mg/kg/injection, schedule: Q04DX003 (sc), vehicle: Klucel (hydroxypropylcellulose) (HPC)) 66 % of control; (dose: 13.33 mg/kg/injection, schedule: Q04DX003 (ip), vehicle: saline with Tween-80) 105 % of control; (dose: 16.0 mg/kg/injection, schedule: Q01DX010 (ip), vehicle: saline with Tween-80) 263 % of control. Besides, the T/C was 61 % of control (dose: 16.0 mg/kg/injection, schedule: Q01DX010 (sc), vehicle: saline with Tween-80); 67 % of control under setting [7]; 36 % of control (dose: 26.65 mg/kg/injection, schedule: Q04DX003 (ip), vehicle: saline with Tween-80); 64 % of control (dose: 26.66 mg/kg/injection, schedule: Q04DX003 (sc), vehicle: saline with Tween-80); 8 % of control (dose: 32.0 mg/kg/injection, schedule: Q01DX010 (ip), vehicle: saline with Tween-80); 3 % of control (dose: 32.0 mg/kg/injection, schedule: Q01DX010 (sc), vehicle: saline with Tween-80). For the same compound, the T/C by setting is: under setting [8], 31 % of control; (dose: 53.3 mg/kg/injection, schedule: Q04DX003 (ip), vehicle: saline with Tween-80) 42 % of control; (dose: 53.33 mg/kg/injection, schedule: Q04DX003 (sc), vehicle: saline with Tween-80) 31 % of control.
